Measured values reported in US6096930A, “Herbicidal cyclohexane-1,3-dione derivatives and their preparation process” (Korea Research Institute of Chemical Technology, priority 1994, dated 2000).
Like-named read-outs stand apart in the source and are kept apart here.

How the values were obtained:
Assay in all cases: Herbicidal activity for paddy test
Format in all cases: in vivo
[1] = test system: ORYSA; conditions: for plant injury at 2 g/ha: 0.002 kg/ha; for plant injury at 8 g/ha: 0.008 kg/ha; for plant injury at 31 g/ha: 0.031 kg/ha; for plant injury at 125 g/ha: 0.125 kg/ha; for plant injury at 500 g/ha: 0.500 kg/ha
From the text: (§1) The sterilized sandy loam soil is filled in test pot having a surface area of 348 cm^2 for upland test conditions or 115 cm^2 for paddy test species were planted in furrows.
(§2) The herbicidal activity data were taken visually by percent control, wherein 0 signifies no herbicidal effect and 100 signifies complete kill.

[2] = test system: ECHOR; conditions: for pest or weed control at 2 g/ha: 0.002 kg/ha; for pest or weed control at 8 g/ha: 0.008 kg/ha; for pest or weed control at 31 g/ha: 0.031 kg/ha; for pest or weed control at 125 g/ha: 0.125 kg/ha; for pest or weed control at 500 g/ha: 0.500 kg/ha
From the text: as §1, §2

[3] = test system: SAGPY; conditions: for pest or weed control at 2 g/ha: 0.002 kg/ha; for pest or weed control at 8 g/ha: 0.008 kg/ha; for pest or weed control at 31 g/ha: 0.031 kg/ha; for pest or weed control at 125 g/ha: 0.125 kg/ha; for pest or weed control at 500 g/ha: 0.500 kg/ha
From the text: as §1, §2

[4] = test system: SCPJU; conditions: for pest or weed control at 2 g/ha: 0.002 kg/ha; for pest or weed control at 8 g/ha: 0.008 kg/ha; for pest or weed control at 31 g/ha: 0.031 kg/ha; for pest or weed control at 125 g/ha: 0.125 kg/ha; for pest or weed control at 500 g/ha: 0.500 kg/ha
From the text: as §1, §2

[5] = test system: MOOVA; conditions: for pest or weed control at 2 g/ha: 0.002 kg/ha; for pest or weed control at 8 g/ha: 0.008 kg/ha; for pest or weed control at 31 g/ha: 0.031 kg/ha; for pest or weed control at 125 g/ha: 0.125 kg/ha; for pest or weed control at 500 g/ha: 0.500 kg/ha
From the text: as §1, §2

[6] = 3 Leaf, read-out: Herbicidal activity, ORYSA (3 Leaf)
[7] = seed, read-out: Herbicidal activity, ORYSA (seed)

CCCC(=NOCC)C1=C(O)CC(c2c(C)c3c(c(C)c2Cl)CC(C)(C)C3)CC1=O (stereo not drawn) [Compound 26, 5-(6-Chloro-2,2,4,7-tetramethylindan-5-yl)-2-[1-(ethoxyimino)butyl]-3-hydroxycyclohex-2-en-1-one]
30%: plant injury at 500 g/ha [1, 6]
40%: pest or weed control at 500 g/ha [4]
100%: plant injury at 125 g/ha [1, 7] | plant injury at 500 g/ha [1, 7] | pest or weed control at 31 g/ha [2] | pest or weed control at 125 g/ha [2] | pest or weed control at 500 g/ha [2]
0%: plant injury at 2 g/ha [1, 6] | plant injury at 8 g/ha [1, 6] | plant injury at 31 g/ha [1, 6] | plant injury at 125 g/ha [1, 6] | plant injury at 2 g/ha [1, 7] | plant injury at 8 g/ha [1, 7] | pest or weed control at 2 g/ha [2] | pest or weed control at 8 g/ha [2] | pest or weed control at 2 g/ha [3] | pest or weed control at 8 g/ha [3] | pest or weed control at 31 g/ha [3] | pest or weed control at 125 g/ha [3] | pest or weed control at 500 g/ha [3] | pest or weed control at 2 g/ha [4] | pest or weed control at 8 g/ha [4] | pest or weed control at 31 g/ha [4] | pest or weed control at 125 g/ha [4] | pest or weed control at 2 g/ha [5] | pest or weed control at 8 g/ha [5] | pest or weed control at 31 g/ha [5] | pest or weed control at 125 g/ha [5] | pest or weed control at 500 g/ha [5]
20%: plant injury at 31 g/ha [1, 7]

C=CCON=C(CCC)C1=C(O)CC(c2c(C)c(C)c3c(c2C)CC(C)(C)C3)CC1=O (stereo not drawn) [Compound 8]
100%: plant injury at 125 g/ha [1, 7] | plant injury at 500 g/ha [1, 7] | pest or weed control at 31 g/ha [2] | pest or weed control at 125 g/ha [2] | pest or weed control at 500 g/ha [2]
0%: plant injury at 2 g/ha [1, 6] | plant injury at 8 g/ha [1, 6] | plant injury at 31 g/ha [1, 6] | plant injury at 125 g/ha [1, 6] | plant injury at 500 g/ha [1, 6] | plant injury at 2 g/ha [1, 7] | plant injury at 8 g/ha [1, 7] | pest or weed control at 2 g/ha [2] | pest or weed control at 2 g/ha [3] | pest or weed control at 8 g/ha [3] | pest or weed control at 31 g/ha [3] | pest or weed control at 125 g/ha [3] | pest or weed control at 500 g/ha [3] | pest or weed control at 2 g/ha [4] | pest or weed control at 8 g/ha [4] | pest or weed control at 31 g/ha [4] | pest or weed control at 125 g/ha [4] | pest or weed control at 500 g/ha [4] | pest or weed control at 2 g/ha [5] | pest or weed control at 8 g/ha [5] | pest or weed control at 31 g/ha [5] | pest or weed control at 125 g/ha [5] | pest or weed control at 500 g/ha [5]
40%: pest or weed control at 8 g/ha [2]
60%: plant injury at 31 g/ha [1, 7]

CCC(=NOC)C1=C(O)CC(c2c(C)c(C)c3c(c2C)CC(C)(CC)C3)CC1=O (stereo not drawn) [Compound 11]
0%: plant injury at 2 g/ha [1, 6] | plant injury at 8 g/ha [1, 6] | plant injury at 31 g/ha [1, 6] | plant injury at 2 g/ha [1, 7] | plant injury at 8 g/ha [1, 7] | pest or weed control at 2 g/ha [2] | pest or weed control at 2 g/ha [3] | pest or weed control at 8 g/ha [3] | pest or weed control at 31 g/ha [3] | pest or weed control at 125 g/ha [3] | pest or weed control at 500 g/ha [3] | pest or weed control at 2 g/ha [4] | pest or weed control at 8 g/ha [4] | pest or weed control at 31 g/ha [4] | pest or weed control at 125 g/ha [4] | pest or weed control at 500 g/ha [4] | pest or weed control at 2 g/ha [5] | pest or weed control at 8 g/ha [5] | pest or weed control at 31 g/ha [5]
30%: plant injury at 125 g/ha [1, 6] | plant injury at 31 g/ha [1, 7] | pest or weed control at 8 g/ha [2] | pest or weed control at 125 g/ha [5]
100%: plant injury at 125 g/ha [1, 7] | plant injury at 500 g/ha [1, 7] | pest or weed control at 125 g/ha [2] | pest or weed control at 500 g/ha [2]
70%: pest or weed control at 31 g/ha [2]
80%: plant injury at 500 g/ha [1, 6]
50%: pest or weed control at 500 g/ha [5]

CCCC(=NOCC=CCl)C1=C(O)CC(c2c(C)c(C)c3c(c2C)CC(C)(C)C3)CC1=O (stereo not drawn) [Compound 9]
0%: plant injury at 2 g/ha [1, 6] | plant injury at 8 g/ha [1, 6] | plant injury at 31 g/ha [1, 6] | plant injury at 125 g/ha [1, 6] | plant injury at 500 g/ha [1, 6] | plant injury at 2 g/ha [1, 7] | plant injury at 8 g/ha [1, 7] | plant injury at 31 g/ha [1, 7] | pest or weed control at 2 g/ha [2] | pest or weed control at 2 g/ha [3] | pest or weed control at 8 g/ha [3] | pest or weed control at 31 g/ha [3] | pest or weed control at 125 g/ha [3] | pest or weed control at 500 g/ha [3] | pest or weed control at 2 g/ha [4] | pest or weed control at 8 g/ha [4] | pest or weed control at 31 g/ha [4] | pest or weed control at 125 g/ha [4] | pest or weed control at 500 g/ha [4] | pest or weed control at 2 g/ha [5] | pest or weed control at 8 g/ha [5] | pest or weed control at 31 g/ha [5] | pest or weed control at 125 g/ha [5] | pest or weed control at 500 g/ha [5]
100%: plant injury at 500 g/ha [1, 7] | pest or weed control at 31 g/ha [2] | pest or weed control at 125 g/ha [2] | pest or weed control at 500 g/ha [2]
50%: pest or weed control at 8 g/ha [2]
70%: plant injury at 125 g/ha [1, 7]

CCC(=NOCC=CCl)C1=C(O)CC(c2c(C)c(C)c3c(c2C)CC(C)(CC)C3)CC1=O (stereo not drawn) [Compound 14]
100%: plant injury at 500 g/ha [1, 7] | pest or weed control at 31 g/ha [2] | pest or weed control at 125 g/ha [2] | pest or weed control at 500 g/ha [2] | pest or weed control at 500 g/ha [5]
70%: pest or weed control at 8 g/ha [2]
40%: plant injury at 500 g/ha [1, 6] | plant injury at 125 g/ha [1, 7]
30%: pest or weed control at 2 g/ha [2] | pest or weed control at 500 g/ha [3] | pest or weed control at 125 g/ha [4] | pest or weed control at 125 g/ha [5]
0%: plant injury at 2 g/ha [1, 6] | plant injury at 8 g/ha [1, 6] | plant injury at 31 g/ha [1, 6] | plant injury at 125 g/ha [1, 6] | plant injury at 2 g/ha [1, 7] | plant injury at 8 g/ha [1, 7] | plant injury at 31 g/ha [1, 7] | pest or weed control at 2 g/ha [3] | pest or weed control at 8 g/ha [3] | pest or weed control at 31 g/ha [3] | pest or weed control at 125 g/ha [3] | pest or weed control at 2 g/ha [4] | pest or weed control at 8 g/ha [4] | pest or weed control at 31 g/ha [4] | pest or weed control at 2 g/ha [5] | pest or weed control at 8 g/ha [5] | pest or weed control at 31 g/ha [5]
90%: pest or weed control at 500 g/ha [4]
